# Data reported in patent US20180332879A1, “AGENT FOR IMPROVING AFTERTASTE HAVING HIGH INTENSITY SWEETENERS” (NAGAOKA CO., LTD., priority 2017, published 2018).
# Residues, ends and D or L forms follow the SMILES beside them.
# Experiments:
# [1] = Sweetness degree and taste characteristics of sweetener solutions equivalent to 8% by mass aqueous sugar solution; conditions: intensity of sweetness, sweetness degree of sugar defined as 1
# Protocol: Solutions, each having a sweetness degree corresponding to an 8% by mass aqueous sugar solution, were prepared using the various high-intensity sweeteners shown in Table 1. In Table 1, each of the sweetness degrees represents the intensity of sweetness wherein the sweetness degree of sugar is defined as 1, and each of the concentrations represents the concentration of a high-intensity sweetener in the solution.
# [2] = Sensory evaluation by seven panelists: improvement of the quality of sweetness and impure taste of a high-intensity sweetener solution after adding the improving agent; conditions: summary of Table 2
# Protocol: The resultant solution 1 (an aspartame solution) in Preparation Example 3 was added the resultant solution in Preparation Example 1 in an amount of 0.033% by mass. The concentration of isobutyl angelate added to the solution 1 was 0.0099 ppm by mass. The taste of the solution 1 having isobutyl angelate added thereto was evaluated by the following method.
# The solution 1 (without addition of isobutyl angelate) was tasted by seven panelists (one twenty-something male, one thirty-something male, one forty-something male, one fifty-something male, one sixty-something male, and one twenty-something female and one thirty-something female). Subsequently, the seven panelists rinsed their mouths sufficiently, and then the solution 1 containing isobutyl angelate (with addition of isobutyl angelate) was tasted by the seven panelists. The panelists compared the isobutyl-angelate-free solution with the isobutyl-angelate-added solution, and then determined whether or not the quality of sweetness and the impure taste of the isobutyl-angelate-added solution were improved compared with the isobutyl-angelate-free solution in accordance with the following criteria. When the sum total of the scores determined by the seven panelists was 10 points or greater, it was determined that the quality of sweetness and the impure taste were improved. […]
Structure (SMILES),Sweetness degree [1] [times],"Unpleasant aftertaste and impure taste (harsh, astringent) of a high-intensity sweetener in a solution [2]"
CC1=CC(=O)NS(=O)(=O)O1 [Acesulfame potassium],200,–
COC(=O)[C@H](Cc1ccccc1)NC(=O)[C@@H](N)CC(=O)O [Aspartame] (H-Asp-Phe-OMe),200,–
OC[C@H]1O[C@H](O[C@]2(CCl)O[C@H](CCl)[C@@H](O)[C@@H]2O)[C@H](O)[C@@H](O)[C@H]1Cl [Sucralose],600,–
"C/C=C(/C)C(=O)OCC(C)C [isobutyl angelate, Isobutyl angelate]",–,can be improved
